Measurements: patent publication US8785459B2, “Quinazoline compounds as kinase inhibitors” (Development Center for Biotechnology, priority 2011, dated 2014)

Tests used:
Type in all cases: biochemical
[1] = molecular target: B-Raf (Homo sapiens (Human), UniProt P15056); assay: Raf kinase assay (B-Raf), [33P] incorporation into MEK1(K97R)
Procedure, shortened: (§1)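 [33P] transfer to kinase-dead MEK1(K97R) substrate (500 ng) measured after 30 min at 30 °C in Tris pH 7.5 buffer containing 8 μM ATP. Enzyme inputs were 2 ng for C-Raf and 5 ng for B-Raf and B-Raf V600E. Duplicate 3-fold serial dilutions gave the half-maximal inhibitory concentration.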

[2] = molecular target: B-Raf (V600E) (Homo sapiens (Human), UniProt P15056, V600E); assay: Raf kinase assay (B-Raf (V600E)), [33P] incorporation into MEK1(K97R)
Procedure, shortened: as §1

[3] = molecular target: C-Raf (Homo sapiens (Human), UniProt P04049); assay: Raf kinase assay (C-Raf), [33P] incorporation into MEK1(K97R)
Procedure, shortened: as §1

[4] = molecular target: EGFR kinase (Homo sapiens (Human), UniProt P00533); assay: EGFR kinase assay
Method: Inhibition of EGFR kinase activity by compounds disclosed herein is quantified by measuring the amount of [^33P] incorporated into the substrate in the presence of a test compound. Briefly, a reaction mixture of 25 μL final volume containing 25 ng of EGFR kinase (EGFR kinase domain alone, Millipore), 3 μg of the substrate [poly(Glu-Tyr), Sigma], kinase reaction buffer (10 mM MOPS pH 7.0, 0.3 mM EDTA, 0.5% glycerol, 0.001% Brij-35, 10 mM MnCl2, 0.1 mg/ml BSA, 100 μM ATP, 0.1 μCi per well [^33P]-γ-ATP (2,500-3,000 Ci/mmol)), and a test compound (100 nM, diluted with 4% DMSO) or DMSO (as the control) was incubated at 30° C. for 30 minutes. The reaction was stopped by adding 5 μL of 3% phosphoric acid solution. The resultant reaction solution was then harvested onto a filter plate (UniFilter-96 GF/B, PerkinElmer), washed 20 times for 5 min with d.d. H2O, and followed by the addition of 30 μL of MicroScint™-20 Cocktail (PerkinElmer). The radioactivity retained on the filter membrane was measured by TopCount™ scintillation detector (PerkinElmer). The results were analyzed by using linear regression software (GraphPad Prism™ 4; GraphPad Software Inc.). IC50 value is defined as the concentration of the test compound which achieves a half-maximal inhibition of the kinase activity.

[5] = molecular target: VEGFR2 kinase (Homo sapiens (Human), UniProt P35968); assay: VEGFR2 kinase assay
Method: Inhibition of VEGFR2 kinase activity by compounds disclosed herein was quantified by measuring the amount of [^33P] incorporated into the substrate in the presence of a test compound. […] The reaction was then stopped by adding 5 μL of 3% phosphoric acid solution. The resultant solution was transferred to and harvested by a filter plate (UniFilter-96 GF/B, PerkinElmer). The filter plate was then washed 20 times with d.d. H2O for 5 min followed by the addition of 30 μL of MicroScint™-20 Cocktail (PerkinElmer). After the plate was sealed, the retained radioactivity on the filter was counted using a TopCount™ scintillation detector (PerkinElmer). […]

[6] = molecular target: FGFR1 kinase (Homo sapiens (Human), UniProt P11362); assay: FGFR1 kinase assay
Method: Inhibition of FGFR1 kinase activity by compounds disclosed herein was quantified by measuring the amount of [^33P] incorporated into the substrate in the presence of a test compound. Briefly, a reaction mixture of 25 μL final volume containing 1 ng of FGFR1 kinase (FGFR1 kinase domain alone, Millipore), 5 μg of the substrate [poly(Glu-Tyr), Sigma], kinase reaction buffer (14 mM MOPS pH 7.0, 0.2 mM EDTA, 0.5% glycerol, 0.001% Brij-35, 0.01% β-mercaptoethanol, 0.1 mg/ml BSA, 100 μM ATP, 0.1 μCi per well [^33P]-γ-ATP (2,500-3,000 Ci/mmol)), and a test compound (100 nM, diluted with 4% DMSO) or DMSO (as the control) was incubated at 30° C. for 60 minutes. The reaction was stopped by adding 5 μL of 3% phosphoric acid solution. The resultant reaction solution was then harvested onto a filter plate (UniFilter-96 GF/B, PerkinElmer), washed 20 times for 5 min with d.d. H2O, and followed by the addition of 30 μL of MicroScint™-20 Cocktail (PerkinElmer). The radioactivity retained on the filter membrane was measured by TopCount™ scintillation detector (PerkinElmer). The results were analyzed by using linear regression software (GraphPad Prism™ 4; GraphPad Software Inc.). IC50 value is defined as the concentration of the test compound which achieves a half-maximal inhibition of the kinase activity.

[7] = molecular target: FLT3 kinase (Homo sapiens (Human), UniProt P36888); assay: FLT3 kinase assay
Method: Inhibition of FLT3 kinase activity by compounds disclosed herein was quantified by measuring the amount of [^33P] incorporated into the substrate in the presence of a test compound. Briefly, a reaction mixture of 25 μL final volume containing 5 ng of Flt3 kinase (obtained by purifying recombinant N-terminal 6×His-tagged Flt3 kinase domain construct expressed from baculovirus), 5 μg of the substrate (Poly(Glu-Tyr, 4:1, Sigma)), kinase reaction buffer (20 mM MOPS pH 7.0, 1 mM EDTA, 5% glycerol, 0.01% Brij-35, 0.1% β-mercaptoethanol, 1 mg/mL BSA, 100 μM ATP, 0.1 μCi per well [^33P]-γ-ATP (2,500-3,000 Ci/mmol)), and a test compound (100 nM, diluted with 4% DMSO) or DMSO (as the control) was incubated at 30° C. for 30 minutes. The reaction was stopped by adding 5 μL of 3% phosphoric acid solution. The resultant reaction solution was then harvested onto a filter plate (UniFilter-96 GF/B, PerkinElmer), washed 20 times for 5 min with d.d. H2O, and followed by the addition of 30 μL of MicroScint™-20 Cocktail (PerkinElmer). The plate was then sealed and counted using a TopCount™ scintillation detector (PerkinElmer). IC50 value is defined as the concentration of the test compound which achieves a half-maximal inhibition of the kinase activity.

Chain of B-Raf (P15056 whole entry): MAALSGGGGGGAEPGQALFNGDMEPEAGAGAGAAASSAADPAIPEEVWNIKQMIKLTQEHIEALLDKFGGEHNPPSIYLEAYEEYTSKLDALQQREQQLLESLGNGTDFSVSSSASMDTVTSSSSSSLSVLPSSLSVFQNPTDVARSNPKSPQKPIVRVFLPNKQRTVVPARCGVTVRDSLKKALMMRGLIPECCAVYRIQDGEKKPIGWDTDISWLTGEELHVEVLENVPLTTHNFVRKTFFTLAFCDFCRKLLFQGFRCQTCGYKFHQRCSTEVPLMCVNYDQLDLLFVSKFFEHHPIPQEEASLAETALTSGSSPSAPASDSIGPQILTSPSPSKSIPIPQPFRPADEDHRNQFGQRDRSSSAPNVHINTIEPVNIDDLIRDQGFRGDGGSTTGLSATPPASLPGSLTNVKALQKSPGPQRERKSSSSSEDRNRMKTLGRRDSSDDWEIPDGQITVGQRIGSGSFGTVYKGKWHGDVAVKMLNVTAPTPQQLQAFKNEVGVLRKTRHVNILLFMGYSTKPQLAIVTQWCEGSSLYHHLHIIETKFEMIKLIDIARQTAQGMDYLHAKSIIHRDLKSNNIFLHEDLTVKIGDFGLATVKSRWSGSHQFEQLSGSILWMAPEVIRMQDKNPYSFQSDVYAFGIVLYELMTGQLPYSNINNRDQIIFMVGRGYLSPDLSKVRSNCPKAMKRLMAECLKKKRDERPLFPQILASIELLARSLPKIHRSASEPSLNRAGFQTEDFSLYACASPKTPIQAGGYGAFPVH
Chain of FLT3 kinase (P36888 610-943): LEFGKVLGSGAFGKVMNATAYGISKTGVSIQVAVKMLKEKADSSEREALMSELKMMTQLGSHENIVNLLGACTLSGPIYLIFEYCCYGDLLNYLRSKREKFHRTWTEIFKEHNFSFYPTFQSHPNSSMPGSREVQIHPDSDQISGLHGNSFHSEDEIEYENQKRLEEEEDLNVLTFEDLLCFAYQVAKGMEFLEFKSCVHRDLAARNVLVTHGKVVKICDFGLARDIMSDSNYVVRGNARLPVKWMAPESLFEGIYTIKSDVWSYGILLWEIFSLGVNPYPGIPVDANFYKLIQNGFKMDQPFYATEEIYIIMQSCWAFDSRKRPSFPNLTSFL
Chain of EGFR kinase (P00533 712-979): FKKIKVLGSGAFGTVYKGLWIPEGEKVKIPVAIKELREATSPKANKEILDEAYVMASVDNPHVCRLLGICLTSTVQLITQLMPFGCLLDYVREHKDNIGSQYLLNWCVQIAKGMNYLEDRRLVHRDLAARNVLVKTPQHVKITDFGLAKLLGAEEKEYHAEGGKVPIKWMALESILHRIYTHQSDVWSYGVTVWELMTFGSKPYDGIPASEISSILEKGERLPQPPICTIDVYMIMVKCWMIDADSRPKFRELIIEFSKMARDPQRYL
Chain of VEGFR2 kinase (P35968 834-1162): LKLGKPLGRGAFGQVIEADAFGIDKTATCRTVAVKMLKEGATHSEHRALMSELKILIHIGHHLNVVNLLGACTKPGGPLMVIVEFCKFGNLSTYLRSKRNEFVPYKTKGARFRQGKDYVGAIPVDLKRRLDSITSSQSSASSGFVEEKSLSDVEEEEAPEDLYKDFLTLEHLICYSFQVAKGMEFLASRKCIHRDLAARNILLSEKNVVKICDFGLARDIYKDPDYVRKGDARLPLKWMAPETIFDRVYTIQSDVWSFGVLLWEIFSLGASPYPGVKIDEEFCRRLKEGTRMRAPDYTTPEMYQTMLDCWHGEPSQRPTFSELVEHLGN
Chain of C-Raf (P04049 whole entry): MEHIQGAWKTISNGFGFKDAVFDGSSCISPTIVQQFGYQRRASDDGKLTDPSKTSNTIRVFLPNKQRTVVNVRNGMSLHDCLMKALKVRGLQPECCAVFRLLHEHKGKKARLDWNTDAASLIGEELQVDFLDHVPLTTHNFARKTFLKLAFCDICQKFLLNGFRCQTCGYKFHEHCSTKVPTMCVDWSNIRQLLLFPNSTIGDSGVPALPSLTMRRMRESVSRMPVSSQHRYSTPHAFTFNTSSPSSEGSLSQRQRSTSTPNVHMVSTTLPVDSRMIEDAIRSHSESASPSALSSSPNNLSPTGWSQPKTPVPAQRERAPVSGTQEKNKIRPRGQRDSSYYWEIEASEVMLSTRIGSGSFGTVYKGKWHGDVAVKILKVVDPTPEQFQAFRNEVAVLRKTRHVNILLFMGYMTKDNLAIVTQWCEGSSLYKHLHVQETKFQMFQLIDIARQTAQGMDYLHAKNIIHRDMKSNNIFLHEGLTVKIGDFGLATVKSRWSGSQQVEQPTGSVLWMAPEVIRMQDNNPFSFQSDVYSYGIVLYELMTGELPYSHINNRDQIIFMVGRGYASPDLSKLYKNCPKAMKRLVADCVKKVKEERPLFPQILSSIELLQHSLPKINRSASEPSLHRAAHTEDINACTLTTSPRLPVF
Chain of FGFR1 kinase (P11362 478-767): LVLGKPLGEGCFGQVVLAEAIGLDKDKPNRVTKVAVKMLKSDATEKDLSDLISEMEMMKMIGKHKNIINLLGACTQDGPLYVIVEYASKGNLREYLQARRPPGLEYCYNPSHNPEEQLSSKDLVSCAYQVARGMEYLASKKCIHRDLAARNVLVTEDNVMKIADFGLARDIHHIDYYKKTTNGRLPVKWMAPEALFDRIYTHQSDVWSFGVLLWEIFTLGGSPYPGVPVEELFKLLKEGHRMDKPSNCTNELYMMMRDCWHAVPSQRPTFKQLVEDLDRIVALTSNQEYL
Chain of B-Raf (V600E) (P15056 whole entry V600E): as the sequence (P15056 whole entry) above, with V600E counted along it

IC50 [1]: 557 nM
inhibition at 1 µM ([1]; 1.0 μM compound, read-out: B-Raf inhibition at 1.0 μM): 55.8%
IC50 [2]: 522 nM
IC50 [3]: 503 nM
IC50 [4]: 56.4 nM
IC50 [5]: 5400 nM
IC50 [6]: 1440 nM
IC50 [7]: 146 nM
Structure (SMILES): COc1cc(-c2ccc3ncnc(Nc4ccc(O)cc4)c3c2)ccc1O [Compound 19, 4-(4-(4-hydroxyphenylamino)quinazolin-6-yl)-2-methoxyphenol]
